According to patent US20150191462A1, “PYRROLIDINE DERIVATIVES AND THEIR USE AS COMPLEMENT PATHWAY MODULATORS” (priority 2012, published 2015):

Molecular target: Recombinant human factor D (Homo sapiens, UniProt P00746)
Test: Human Complement Factor D Assay: Method 1
Format: biochemical
Conditions: Factor D inhibition, 10 nM factor D, Z-Lys-thiobenzyl substrate, fluorescence readout
Experimental: Human Complement Factor D Assay: Method 1 Recombinant human factor D (expressed in E. coli and purified using standard methods) at 10 nM concentration is incubated with test compound at various concentrations for 1 hour at room temperature in 0.1 M Hepes buffer, pH 7.5, containing 1 mM MgCl2, 1 M NaCl and 0.05% CHAPS. […] The increase in fluorescence is recorded at excitation of 485 nm and emission at 535 nm in a microplate spectrofluorimeter. IC50 values are calculated from percentage of inhibition of complement factor D-activity as a function of test compound concentration.

Sequence of Recombinant human factor D (P00746 26-253): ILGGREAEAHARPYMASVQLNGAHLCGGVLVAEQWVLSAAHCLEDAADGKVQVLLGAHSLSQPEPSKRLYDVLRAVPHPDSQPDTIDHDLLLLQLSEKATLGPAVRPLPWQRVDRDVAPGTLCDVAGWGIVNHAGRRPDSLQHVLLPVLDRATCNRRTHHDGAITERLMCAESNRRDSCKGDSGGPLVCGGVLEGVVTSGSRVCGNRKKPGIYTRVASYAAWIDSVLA

IC50 [nM]	SMILES
19	NC(=O)c1nn(CC(=O)N2[C@@H]3C[C@@H]3C[C@H]2C(=O)Nc2cncc(Br)n2)c2ncccc12 [Example 1, 1-{2-[(1R,3S,5R)-3-(6-Bromo-pyrazin-2-ylcarbamoyl)-2-aza-bicyclo[3.1.0]hex-2-yl]-2-oxo-ethyl}-1H-pyrazolo[3,4-b]pyridine-3-carboxylic acid amide]
18	CCc1cc2c(C(N)=O)nn(CC(=O)N3[C@@H]4C[C@@H]4C[C@H]3C(=O)Nc3cccc(C(F)(F)F)n3)c2cn1 [Example 2, 5-Ethyl-1-{2-oxo-2-[(1R,3S,5R)-3-(6-trifluoromethyl-pyridin-2-ylcarbamoyl)-2-aza-bicyclo[3.1.0]hex-2-yl]-ethyl}-1H-pyrazolo[3,4-c]pyridine-3-carboxylic acid amide]
24	NC(=O)c1nn(CC(=O)N2[C@@H]3C[C@@H]3C[C@H]2C(=O)Nc2cccc(Br)n2)c2nnccc12 [Example 3, 1-{2-[(1R,3S,5R)-3-(6-Bromo-pyridin-2-ylcarbamoyl)-2-aza-bicyclo[3.1.0]hex-2-yl]-2-oxo-ethyl}-1H-pyrazolo[3,4-c]pyridazine-3-carboxylic acid amide]
4	NC(=O)c1nn(CC(=O)N2[C@@H]3C[C@@H]3C[C@H]2C(=O)Nc2cccc(Br)n2)c2cnc(C3CC3)cc12 [Example 5, 1-{2-[(1R,3S,5R)-3-(6-Bromo-pyridin-2-ylcarbamoyl)-2-aza-bicyclo[3.1.0]hex-2-yl]-2-oxo-ethyl}-5-cyclopropyl-1H-pyrazolo[3,4-c]pyridine-3-carboxylic acid amide]
38	CC(=O)c1nn(CC(=O)N2[C@@H]3C[C@@H]3C[C@H]2C(=O)Nc2cccc(OC(F)F)n2)c2ccc(OCc3ncccn3)cc12 [Example 6, (1R,3S,5R)-2-{2-[3-Acetyl-5-(pyrimidin-2-ylmethoxy)-indazol-1-yl]-acetyl}-2-aza-bicyclo[3.1.0]hexane-3-carboxylic acid (6-difluoromethoxy-pyridin-2-yl)-amide]
6	Cc1ncc(NC(=O)[C@@H]2C[C@H]3C[C@H]3N2C(=O)Cn2nc(C(N)=O)c3ccccc32)nc1Br [Example 7, 1-{2-[(1R,3S,5R)-3-(6-Bromo-5-methyl-pyrazin-2-ylcarbamoyl)-2-aza-bicyclo[3.1.0]hex-2-yl]-2-oxo-ethyl}-1H-indazole-3-carboxylic acid amide]
5	Cc1ccc2c(C(N)=O)nn(CC(=O)N3[C@@H]4C[C@@H]4C[C@H]3C(=O)Nc3cccc(Br)n3)c2c1 [Example 8, 1-{2-[(1R,3S,5R)-3-(6-Bromo-pyridin-2-ylcarbamoyl)-2-aza-bicyclo[3.1.0]hex-2-yl]-2-oxo-ethyl}-6-methyl-1H-indazole-3-carboxylic acid amide]
32	NC(=O)c1nn(CC(=O)N2[C@@H]3C[C@@H]3C[C@H]2C(=O)Nc2cncc(C(F)(F)F)n2)c2ccccc12 [Example 9, 1-{2-Oxo-2-[(1R,3S,5R)-3-(6-trifluoromethyl-pyrazin-2-ylcarbamoyl)-2-aza-bicyclo[3.1.0]hex-2-yl]ethyl}-1H-indazole-3-carboxylic acid amide]
9	NC(=O)c1nn(CC(=O)N2[C@@H]3C[C@@H]3C[C@H]2C(=O)Nc2cccc(Br)n2)c2ccncc12 [Example 10, 1-{2-[(1R,3S,5R)-3-(6-Bromo-pyridin-2-ylcarbamoyl)-2-aza-bicyclo[3.1.0]hex-2-yl]-2-oxo-ethyl}-1H-pyrazolo[4,3-c]pyridine-3-carboxylic acid amide]
5	NC(=O)c1nn(CC(=O)N2[C@@H]3C[C@@H]3C[C@H]2C(=O)Nc2cccc(Br)n2)c2cc(F)ccc12 [Example 11, 1-{2-[(1R,3S,5R)-3-(6-Bromo-pyridin-2-ylcarbamoyl)-2-aza-bicyclo[3.1.0]hex-2-yl]-2-oxo-ethyl}-6-fluoro-1H-indazole-3-carboxylic acid amide]
16	CC(=O)c1nn(CC(=O)N2[C@@H]3C[C@@H]3C[C@H]2C(=O)Nc2cnc(C)c(Br)n2)c2cnccc12 [Example 12, (1R,3S,5R)-2-[2-(3-Acetyl-pyrazolo[3,4-c]pyridin-1-yl)-acetyl]-2-aza-bicyclo[3.1.0]hexane-3-carboxylic acid (6-bromo-5-methyl-pyrazin-2-yl)-amide]
9	CC(=O)c1nn(CC(=O)N2C[C@H](F)C[C@H]2C(=O)Nc2cccc(Br)n2)c2cnccc12 [Example 13, (2S,4R)-1-[2-(3-Acetyl-pyrazolo[3,4-c]pyridin-1-yl)-acetyl]-4-fluoro-pyrrolidine-2-carboxylic acid (6-bromo-pyridin-2-yl)-amide]
11	CC(=O)c1nn(CC(=O)N2[C@@H]3C[C@@H]3C[C@H]2C(=O)Nc2cncc(Br)n2)c2cnccc12 [Example 14, (1R,3S,5R)-2-[2-(3-Acetyl-pyrazolo[3,4-c]pyridin-1-yl)-acetyl]-2-aza-bicyclo[3.1.0]hexane-3-carboxylic acid (6-bromo-pyrazin-2-yl)-amide]
14	CC(=O)c1nn(CC(=O)N2C[C@H]3C[C@H]3[C@H]2C(=O)Nc2cccc(Br)n2)c2cnccc12 [Example 15, (1R,2S,5S)-3-[2-(3-Acetyl-pyrazolo[3,4-c]pyridin-1-yl)-acetyl]-3-aza-bicyclo[3.1.0]hexane-2-carboxylic acid (6-bromo-pyridin-2-yl)-amide]
17	CC(=O)c1nn(CC(=O)N2[C@@H]3C[C@@H]3C[C@H]2C(=O)Nc2cncc(C(F)(F)F)n2)c2ccccc12 [Example 16, (1R,3S,5R)-2-[2-(3-Acetyl-indazol-1-yl)-acetyl]-2-aza-bicyclo[3.1.0]hexane-3-carboxylic acid (6-trifluoromethyl-pyrazin-2-yl)-amide]
64	CC(=O)c1nn(CC(=O)N2[C@@H]3C[C@@H]3C[C@H]2C(=O)Nc2cncc(C(F)(F)F)n2)c2cnccc12 [Example 17, (1R,3S,5R)-2-[2-(3-Acetyl-pyrazolo[3,4-c]pyridin-1-yl)-acetyl]-2-aza-bicyclo[3.1.0]hexane-3-carboxylic acid (6-trifluoromethyl-pyrazin-2-yl)-amide]
7	CO[C@H]1[C@@H](C(=O)Nc2cccc(Br)n2)N(C(=O)Cn2nc(C(C)=O)c3ccncc32)C[C@@H]1F [Example 18, (2S,3S,4S)-1-[2-(3-Acetyl-pyrazolo[3,4-c]pyridin-1-yl)-acetyl]-4-fluoro-3-methoxy-pyrrolidine-2-carboxylic acid (6-bromo-pyridin-2-yl)-amide]
11	C[C@@]1(F)C[C@@H](C(=O)Nc2cccc(Br)n2)N(C(=O)Cn2nc(C(N)=O)c3ccccc32)C1 [Example 19, 1-{2-[(2S,4R)-2-(6-Bromo-pyridin-2-ylcarbamoyl)-4-fluoro-4-methyl-pyrrolidin-1-yl]-2-oxo-ethyl}-1H-indazole-3-carboxylic acid amide]
4	NC(=O)c1nn(CC(=O)N2[C@@H]3C[C@@H]3C[C@H]2C(=O)Nc2cccc(Cl)n2)c2ccccc12 [Example 20, 1{2-[(1R,3S,5R)-3-(6-Chloro-pyridin-2-ylcarbamoyl)-2-aza-bicyclo[3.1.0]hex-2-yl]-2-oxo-ethyl}-1H-indazole-3-carboxylic acid amide]

SMILES	IC50 [nM]
NC(=O)c1nn(CC(=O)N2[C@@H]3C[C@@H]3C[C@H]2C(=O)Nc2cccc(I)n2)c2ccccc12 [Example 21, 1-{2-[(1R,3S,5R)-3-(6-Iodo-pyridin-2-ylcarbamoyl)-2-aza-bicyclo[3.1.0]hex-2-yl]-2-oxo-ethyl}-1H-indazole-3-carboxylic acid amide]	3
